# Active and inactive are the calls of the source. The calls are words filed in the database; no cut-off is given here.
# Legend:
# [1] = Inhibition of steroid 5-alpha-reductase activity in Sprague-Dawley rat liver microsomes after 10 mins; set-up: species or system Microsome
# LNCaP [2] = test: Growth inhibition of human LNCaP cells in presence of testosterone after 3 days; type: functional, cell-based
# Rattus norvegicus [3] = test: Inhibition of testosterone induced ventral prostate growth in Sprague-Dawley rat at 0.1 mg/kg/day, po after 7 days; type: functional; settings: Prostate gland, 168 h
# Rattus norvegicus [4] = organism: Rattus norvegicus; test: Inhibition of steroid 5-alpha-reductase activity in Sprague-Dawley rat liver microsomes at 113 uM after 10 mins; settings: Microsome
# LNCaP [5] = test: Growth inhibition of human LNCaP cells after 3 days; type: functional, cell-based
# [6] = target: T1, Androgen receptor (Homo sapiens) (UniProt P10275); test: Displacement of dihydrotestosterone from human recombinant AR ligand binding domain at 15 uM by fluorescence polarization method
# T1 sequence (whole entry): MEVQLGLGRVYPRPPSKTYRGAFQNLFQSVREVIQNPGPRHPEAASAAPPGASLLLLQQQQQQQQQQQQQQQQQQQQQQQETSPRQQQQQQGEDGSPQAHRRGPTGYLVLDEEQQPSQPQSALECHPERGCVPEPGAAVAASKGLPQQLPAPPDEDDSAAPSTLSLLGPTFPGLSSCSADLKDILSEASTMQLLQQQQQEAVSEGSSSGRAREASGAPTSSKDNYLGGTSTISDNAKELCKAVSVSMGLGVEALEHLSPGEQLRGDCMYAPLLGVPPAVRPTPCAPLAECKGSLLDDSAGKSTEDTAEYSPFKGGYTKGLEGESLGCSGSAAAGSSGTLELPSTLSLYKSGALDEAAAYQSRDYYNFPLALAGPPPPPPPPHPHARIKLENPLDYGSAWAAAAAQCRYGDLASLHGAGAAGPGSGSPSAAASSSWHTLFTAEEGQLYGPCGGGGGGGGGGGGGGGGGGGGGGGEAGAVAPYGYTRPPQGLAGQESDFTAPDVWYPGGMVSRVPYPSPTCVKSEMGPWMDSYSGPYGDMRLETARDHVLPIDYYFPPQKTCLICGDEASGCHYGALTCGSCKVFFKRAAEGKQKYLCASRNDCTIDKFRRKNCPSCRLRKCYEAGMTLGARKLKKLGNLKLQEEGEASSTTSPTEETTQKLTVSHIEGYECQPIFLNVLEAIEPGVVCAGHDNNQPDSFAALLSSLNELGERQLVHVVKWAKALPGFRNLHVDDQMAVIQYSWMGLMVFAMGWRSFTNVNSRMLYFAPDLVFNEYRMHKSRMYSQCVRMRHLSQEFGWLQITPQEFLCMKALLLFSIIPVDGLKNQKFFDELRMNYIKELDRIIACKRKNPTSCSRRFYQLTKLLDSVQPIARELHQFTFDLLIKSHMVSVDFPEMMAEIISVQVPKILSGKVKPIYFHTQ
# LNCaP [7] = test: Growth inhibition of human LNCaP cells in presence of dihydrotestosterone after 3 days; type: functional, cell-based
# Rattus norvegicus [8] = test: Inhibition of testosterone induced ventral prostate growth in Sprague-Dawley rat at 0.001 mg/kg/day, po after 7 days; type: functional, Prostate gland; set-up: scale not given: the % may be the effect or the level left
IC50 [1],inhibition (Rattus norvegicus [4]),Activity [6],Structure (SMILES),Activity (LNCaP [2]),inhibition in vivo at 0.1 mg/kg/day (Rattus norvegicus [3]),Activity (LNCaP [5]),Activity (LNCaP [7]),Activity (Rattus norvegicus [8])
730 nM,–,–,CC(C)(C)NC(=O)[C@H]1CC[C@H]2[C@@H]3CC[C@H]4NC(=O)C=C[C@]4(C)[C@H]3CC[C@]12C [FINASTERIDE],–,–,–,–,–
–,37%,50%,C/C(=C\CC[C@@H](C)[C@H]1CC[C@@]2(C)C3=CC[C@H]4C(C)(C)[C@@H](O)CC[C@]4(C)C3=CC[C@]12C)CO [GANODEROL B],Dose-dependent effect,49%,inactive,Dose-dependent effect,31%
